Laboratory results from US20240383923A1, “HETEROARYL DERIVATIVE AND USE THEREOF” (VORONOI INC., priority 2022, published 2024).

Assays:
BT-474 cancer cells = assay: Inhibition of BT-474 cell proliferation (CellTiter-Glo); assay type: cell-based; conditions: Homo sapiens, BT-474 cells, 120 hours
How it was run: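 BT-474 cells in RPMI-1640 with 20% FBS, seeded 48 h before dosing with 11 three-fold dilutions (final 0.2 nM to 10 μM). Viability read by CellTiter-Glo luminescence 120 h after treatment, triplicate tests. GI50 derived from growth rate (%) versus control.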

N-87 cancer cells = assay: Inhibition of N-87 cell proliferation (CellTiter-Glo); assay type: cell-based; conditions: N-87 cells, 72 hours
Experimental: N-87 cancer cells were cultured by using RPMI-1640 medium with 10% FBS. The N-87 cancer cells were seeded to a white clear bottom 96 well plate (Corning) at 5,000 cells per well 24 hours before the […] cancer cells were treated with Example Compounds. Example Compounds were diluted in dimethylsulfoxide (5-fold diluted, total 11 concentrations) and 0.5 μL each was injected so that the final concentration was […]. For the measurement of living cells, the cells were stored at room temperature for 10 minutes using the CellTiter-Glo cell viability reagent (Promega) after 72 hours after the treatment of Example Compounds, and then the luminescence intensity was measured using the reader (SynergyNeo, Biotek).
The result value was calculated as a cell growth rate (%) compared to a control group. Graphs were plotted and GI50 values were calculated using the GraphPad Prism version 8.0 program, and the results are shown in Table 18 below.

GI50 (BT-474 cancer cells)	GI50 (N-87 cancer cells)	Structure (SMILES)
≤ 50 nM	≤ 50 nM	C=CC(=O)N1CCC(Nc2cc3c(Nc4cc(C)c(Oc5ccn6ncnc6c5)cc4OC)ncnc3cc2OC)CC1 [Example 1, 1-(4-((4-((4-([1,2,4]triazolo[1,5-a]pyridin-7-yloxy)-2-methoxy-5-methylphenyl)amino)-7-methoxyquinazolin-6-yl)amino)piperidin-1-yl)prop-2-en-1-one]
≤ 50 nM	≤ 50 nM	C=CC(=O)N1CCC(Nc2cc3c(Nc4cc(Cl)c(Oc5ccccn5)cc4OC)ncnc3cc2OC)CC1 [Example 3, 1-(4-((4-((5-chloro-2-methoxy-4-(pyridin-2-yloxy)phenyl)amino)-7-methoxyquinazolin-6-yl)amino)piperidin-1-yl)prop-2-en-1-one]
≤ 50 nM	≤ 50 nM	C=CC(=O)N1CCC(Oc2cc3c(Nc4cc(Cl)c(Oc5ccn6ncnc6c5)cc4OC)ncnc3cc2OC)CC1 [Example 5, 1-(4-((4-((4-([1,2,4]triazolo[1,5-a]pyridin-7-yloxy)-5-chloro-2-methoxyphenyl)amino)-7-methoxyquinazolin-6-yl)oxy)piperidin-1-yl)prop-2-en-1-one]
≤ 50 nM	≤ 50 nM	C=CC(=O)N1CCC(Oc2cc3c(Nc4cc(Cl)c(Oc5cccc(F)c5)cc4OC)ncnc3cc2OC)C(F)C1 (centres unmarked) [Example 6, 1-(4-((4-((5-chloro-4-(3-fluorophenoxy)-2-methoxyphenyl)amino)-7-methoxyquinazolin-6-yl)oxy)-3-fluoropiperidin-1-yl)prop-2-en-1-one]
≤ 50 nM	≤ 50 nM	C=CC(=O)N1CCC(Oc2cc3c(Nc4ccc(Oc5cccc(F)c5)cc4OC)ncnc3cc2OC)CC1 [Example 7, 1-(4-((4-((4-(3-fluorophenoxy)-2-methoxyphenyl)amino)-7-methoxyquinazolin-6-yl)oxy)piperidin-1-yl)prop-2-en-1-one]
50 to 100 nM	≤ 50 nM	C=CC(=O)N1CCC(Oc2cc3c(Nc4ccc(Oc5ccn(-c6cnc(C)c(F)c6)n5)cc4OC)ncnc3cc2OC)CC1 [Example 9, 1-(4-((4-((4-((1-(5-fluoro-6-methylpyridin-3-yl)-1H-pyrazol-3-yl)oxy)-2-methoxyphenyl)amino)-7-methoxyquinazolin-6-yl)oxy)piperidin-1-yl)prop-2-en-1-one]
≤ 50 nM	≤ 50 nM	C=CC(=O)N1CCC(Oc2cc(OC)cc3ncnc(Nc4cc(C)c(Oc5ccn6ncnc6c5)cc4OC)c23)C(F)(F)C1 (centres unmarked) [Example 15, 1-(4-((4-((4-([1,2,4]triazolo[1,5-a]pyridin-7-yloxy)-2-methoxy-5-methylphenyl)amino)-7-methoxyquinazolin-5-yl)oxy)-3,3-difluoropiperidin-1-yl)prop-2-en-1-one]
≤ 50 nM	≤ 50 nM	C=CC(=O)N1CCC(F)(F)C(Oc2cc(OC)cc3ncnc(Nc4cc(C)c(Oc5ccn6ncnc6c5)cc4OC)c23)C1 (centres unmarked) [Example 16, 1-(3-((4-((4-([1,2,4]triazolo[1,5-a]pyridin-7-yloxy)-2-methoxy-5-methylphenyl)amino)-7-methoxyquinazolin-5-yl)oxy)-4,4-difluoropiperidin-1-yl)prop-2-en-1-one]
≤ 50 nM	≤ 50 nM	C=CC(=O)Nc1cc2c(Nc3cc(Cl)c(Oc4ccccn4)cc3OC)ncnc2cc1OC [Example 24, N-(4-((5-chloro-2-methoxy-4-(pyridin-2-yloxy)phenyl)amino)-7-methoxyquinazolin-6-yl)acrylamide]
≤ 50 nM	≤ 50 nM	COc1cc2ncnc(Nc3cc(Cl)c(Oc4cccc(F)c4)cc3OC)c2cc1NC(=O)/C=C/[C@H]1CCCN1 [Example 31, (R,E)-N-(4-((5-chloro-4-(3-fluorophenoxy)-2-methoxyphenyl)amino)-7-methoxyquinazolin-6-yl)-3-(pyrrolidin-2-yl)acrylamide]
≤ 50 nM	≤ 50 nM	COc1cc2ncnc(Nc3cc(Cl)c(Oc4ccn5ncnc5c4)cc3OC)c2cc1NC(=O)/C=C/[C@H]1CCCN1C [Example 32, (R,E)-N-(4-((4-([1,2,4]triazolo[1,5-a]pyridin-7-yloxy)-5-chloro-2-methoxyphenyl)amino)-7-methoxyquinazolin-6-yl)-3-(1-methylpyrrolidin-2-yl)acrylamide]
≤ 50 nM	≤ 50 nM	COc1cc2ncnc(Nc3cc(C)c(Oc4ccn5ncnc5c4)cc3OC)c2cc1NC(=O)/C(F)=C\[C@H]1CCCN1C [Example 41, (R,E)-N-(4-((4-([1,2,4]triazolo[1,5-a]pyridin-7-yloxy)-2-methoxy-5-methylphenyl)amino)-7-methoxyquinazolin-6-yl)-2-fluoro-3-(1-methylpyrrolidin-2-yl)acrylamide]
≤ 50 nM	≤ 50 nM	COc1cc2ncnc(Nc3ccc(Oc4ccn5ncnc5c4)cc3OC)c2cc1NC(=O)/C(F)=C\[C@H]1CCCN1C [Example 46, (R,E)-N-(4-((4-([1,2,4]triazolo[1,5-a]pyridin-7-yloxy)-2-methoxyphenyl)amino)-7-methoxyquinazolin-6-yl)-2-fluoro-3-(1-methylpyrrolidin-2-yl)acrylamide]
≤ 50 nM	≤ 50 nM	COc1cc2ncnc(Nc3cc(Cl)c(Oc4ccn5ncnc5c4)cc3OC)c2cc1NC(=O)/C(F)=C\[C@H]1CCCN1C [Example 51, (R,E)-N-(4-((4-([1,2,4]triazolo[1,5-a]pyridin-7-yloxy)-5-chloro-2-methoxyphenyl)amino)-7-methoxyquinazolin-6-yl)-2-fluoro-3-(1-methylpyrrolidin-2-yl)acrylamide]
≤ 50 nM	≤ 50 nM	CCN1CCC[C@@H]1/C=C(/F)C(=O)Nc1cc2c(Nc3cc(C)c(Oc4ccn5ncnc5c4)cc3OC)ncnc2cc1OC [Example 52, (R,E)-N-(4-((4-([1,2,4]triazolo[1,5-a]pyridin-7-yloxy)-2-methoxy-5-methylphenyl)amino)-7-methoxyquinazolin-6-yl)-3-(1-ethylpyrrolidin-2-yl)-2-fluoroacrylamide]
≤ 50 nM	≤ 50 nM	COc1cc2ncnc(Nc3cc(C)c(Oc4ccc5ncn(C)c5c4)cc3OC)c2cc1NC(=O)/C(F)=C\[C@H]1CCCN1C [Example 55, (R,E)-2-fluoro-N-(7-methoxy-4-((2-methoxy-5-methyl-4-((1-methyl-1H-benzo[d]imidazol-6-yl)oxy)phenyl)amino)quinazolin-6-yl)-3-(1-methylpyrrolidin-2-yl)acrylamide]
≤ 50 nM	≤ 50 nM	COc1cc2ncnc(Nc3cc(C)c(Oc4ccccc4)cc3OC)c2cc1NC(=O)/C(F)=C\[C@H]1CCCN1C [Example 74, (R,E)-2-fluoro-N-(7-methoxy-4-((2-methoxy-5-methyl-4-phenoxyphenyl)amino)quinazolin-6-yl)-3-(1-methylpyrrolidin-2-yl)acrylamide]
≤ 50 nM	≤ 50 nM	COc1cc2ncnc(Nc3cc(C)c(Oc4ccn5ccnc5c4)cc3OC)c2cc1NC(=O)/C(F)=C/[C@H]1CCCN1C [Example 76, (R,Z)-2-fluoro-N-(4-((4-(imidazo[1,2-a]pyridin-7-yloxy)-2-methoxy-5-methylphenyl)amino)-7-methoxyquinazolin-6-yl)-3-(1-methylpyrrolidin-2-yl)acrylamide]
≤ 50 nM	≤ 50 nM	COc1cc(Oc2ccn3ncnc3c2)c(C)cc1Nc1ncnc2ccc(NC(=O)/C(F)=C\[C@H]3CCCN3C)cc12 [Example 91, (R,E)-N-(4-((4-([1,2,4]triazolo[1,5-a]pyridin-7-yloxy)-2-methoxy-5-methylphenyl)amino)quinazolin-6-yl)-2-fluoro-3-(1-methylpyrrolidin-2-yl)acrylamide]
